Measurements taken from article PMC10321576, “Cyclic peptides target the aromatic cage of a PHD-finger reader domain to modulate epigenetic protein function” (Chemical Science, 2023).
Read-outs that look alike come from different tables or passages of the source. Peptide text beside a SMILES is read from it.

Experiments:
KDM7B PHD [1] = biological target: T1, KDM7B PHD (Homo sapiens, UniProt Q9UPP1); assay: BLI binding; parameters: key to BLI Screening, KDM7B PHD: (+) = binding; (-) = no binding; (NS) = non-specific
T1 construct: KDM7B 1-66; made in house
T1 sequence (Q9UPP1 1-66 isoform Q9UPP1-2): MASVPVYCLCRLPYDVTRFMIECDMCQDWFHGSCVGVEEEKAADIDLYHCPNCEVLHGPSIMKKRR
Source text: (§1) Figure S2. BLI for KDM7 proteins with cyclic peptides.
(§2) BLI traces for b inding to KDM7 protein domains immobilised by C-terminal His -tag on Ni -NTA
(§3) biosensors, against cyclic peptides. Response trace for each peptide concentration is represented by
(§4) a different colour, with the fitted curves overlaid in black.
(§5) concentration plotted, with 2-fold dilutions thereafter. Dual domain = PHD+JmjC. […]
(§6) against KDM7 and other protein domains. t1/2 = half life (0.693 / Koff)
(§7) (1 picture or pasted object on this page, not shown here)

KDM7B JmjC = biological target: T2, KDM7B JmjC (Homo sapiens, UniProt Q9UPP1); assay: BLI binding; parameters: key to BLI Screening, KDM7B JmjC: (+) = binding; (-) = no binding; (NS) = non-specific
T2 construct: made in house
T2 sequence (Q9UPP1 231-387 limits assumed): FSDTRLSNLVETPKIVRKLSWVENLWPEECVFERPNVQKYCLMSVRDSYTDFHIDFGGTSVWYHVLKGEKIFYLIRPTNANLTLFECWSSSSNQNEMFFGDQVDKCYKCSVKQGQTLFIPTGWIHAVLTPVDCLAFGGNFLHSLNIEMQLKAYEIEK
Source text: as §1, §2, §3, §4, §5, §6, §7

DIDO PHD [2] = biological target: T3, DIDO PHD (Homo sapiens, UniProt Q9BTC0); assay: BLI binding; conditions: 1:1 binding model
T3 construct: DIDO PHD
T3 sequence (Q9BTC0 268-322 limits assumed): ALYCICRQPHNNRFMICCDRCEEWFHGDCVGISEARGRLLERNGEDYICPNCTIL
Source text: as §6, §7

ING2 PHD [3] = biological target: T4, ING2 PHD (Homo sapiens, UniProt Q9H160); assay: BLI binding; conditions: 1:1 binding model
T4 construct: ING2 PHD
T4 sequence (Q9H160 212-261 limits assumed): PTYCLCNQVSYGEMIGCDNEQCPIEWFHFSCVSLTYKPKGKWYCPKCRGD
Source text: as §6, §7

SPIN1 TTD [4] = biological target: T5, SPIN1 TTD (Homo sapiens, UniProt Q9Y657); assay: BLI binding; conditions: 1:1 binding model
T5 sequence (Q9Y657 53-262 limits assumed): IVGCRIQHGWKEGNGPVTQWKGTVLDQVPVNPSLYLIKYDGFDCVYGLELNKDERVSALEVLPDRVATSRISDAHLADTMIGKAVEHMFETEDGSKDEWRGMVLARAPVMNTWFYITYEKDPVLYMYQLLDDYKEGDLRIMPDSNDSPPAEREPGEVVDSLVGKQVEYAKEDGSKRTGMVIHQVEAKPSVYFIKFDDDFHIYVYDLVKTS
Source text: as §6, §7

TAF3 PHD = biological target: T6, TAF3 PHD (Homo sapiens, UniProt Q5VWG9); assay: BLI binding; conditions: 1:1 binding model
T6 construct: TAF3 PHD
T6 sequence (Q5VWG9 865-915 limits assumed): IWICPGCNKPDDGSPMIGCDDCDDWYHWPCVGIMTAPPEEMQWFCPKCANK
Source text: as §6, §7

HisTrx-DIDO PHD = biological target: T7, HisTrx-DIDO PHD (Homo sapiens, UniProt Q9BTC0); assay: ITC binding; conditions: 50 mM HEPES, 100 mM NaCl, pH 7.4, 25 °C; 1:1 binding model
T7 construct: HisTrx-DIDO PHD
Protocol: (§8) Figure S10. ITC results: Tabulated values from 1:1 binding model and conditions
(§9) ITC buffer = 50 mM HEPES, 100 mM NaCl, pH 7.4, 0.2 µm filtered), at 25 °C. Dual = PHD+JmjC. HisTrx
(§10) = His 6+thioredoxin tag, GST = glutathione S -transferase tag, ZB = Z -basic tag. Syringe contained
(§11) peptide solution in buffer. Cell contained protein solution in buffer.
as §7

KDM7A Dual = KDM7A Dual (Homo sapiens, UniProt Q6ZMT4); assay: ITC binding
KDM7A Dual, sequence (Q6ZMT4 38-386 limits assumed): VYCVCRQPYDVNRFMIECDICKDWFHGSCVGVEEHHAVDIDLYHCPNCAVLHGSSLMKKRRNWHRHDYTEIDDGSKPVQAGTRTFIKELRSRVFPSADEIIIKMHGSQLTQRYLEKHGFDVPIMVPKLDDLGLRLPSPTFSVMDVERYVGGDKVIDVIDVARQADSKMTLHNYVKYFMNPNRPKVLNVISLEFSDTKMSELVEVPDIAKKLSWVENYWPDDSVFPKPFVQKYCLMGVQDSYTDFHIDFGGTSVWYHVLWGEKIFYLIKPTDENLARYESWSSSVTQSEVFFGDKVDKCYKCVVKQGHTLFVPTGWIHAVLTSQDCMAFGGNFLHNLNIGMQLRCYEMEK
Protocol: as §8, §9, §10, §11, §7

KDM7B Dual = biological target: T8, KDM7B Dual (Homo sapiens, UniProt Q9UPP1); assay: ITC binding
T8 construct: Dual = PHD+JmjC; made in house
T8 sequence (Q9UPP1 37-483 limits assumed): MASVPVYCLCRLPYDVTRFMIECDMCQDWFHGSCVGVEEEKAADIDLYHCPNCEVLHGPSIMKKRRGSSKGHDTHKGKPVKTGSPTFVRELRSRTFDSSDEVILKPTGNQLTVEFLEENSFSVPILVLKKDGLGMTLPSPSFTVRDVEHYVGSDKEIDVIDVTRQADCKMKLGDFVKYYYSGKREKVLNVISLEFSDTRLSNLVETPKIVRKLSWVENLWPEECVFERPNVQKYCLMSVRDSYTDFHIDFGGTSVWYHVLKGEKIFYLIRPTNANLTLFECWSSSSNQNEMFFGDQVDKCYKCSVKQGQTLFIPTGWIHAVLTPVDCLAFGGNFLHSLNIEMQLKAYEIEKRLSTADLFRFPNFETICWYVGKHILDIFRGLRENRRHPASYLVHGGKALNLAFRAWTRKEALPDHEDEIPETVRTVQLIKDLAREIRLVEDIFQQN
Protocol: as §8, §9, §10, §11, §7

KDM7B PHD [5] = biological target: T1, KDM7B PHD; assay: ITC binding
Protocol: as §8, §9, §10, §11, §7

KDM7C Dual - ZB = KDM7C Dual - ZB (Homo sapiens, UniProt O75151); assay: ITC binding
KDM7C Dual - ZB, sequence (O75151 1-353 limits assumed): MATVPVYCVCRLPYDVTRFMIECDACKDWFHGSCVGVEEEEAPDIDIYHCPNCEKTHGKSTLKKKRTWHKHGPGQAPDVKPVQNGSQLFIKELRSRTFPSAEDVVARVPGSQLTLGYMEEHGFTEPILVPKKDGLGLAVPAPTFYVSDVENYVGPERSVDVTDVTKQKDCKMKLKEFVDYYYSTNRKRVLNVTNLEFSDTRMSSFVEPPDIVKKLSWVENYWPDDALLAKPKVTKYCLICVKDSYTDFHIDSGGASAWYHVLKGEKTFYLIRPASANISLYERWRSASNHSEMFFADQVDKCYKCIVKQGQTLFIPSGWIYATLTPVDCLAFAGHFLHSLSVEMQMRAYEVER
Protocol: as §8, §9, §10, §11, §7

HisTrx-KDM7B PHD = biological target: T9, HisTrx-KDM7B PHD (Homo sapiens, UniProt Q9UPP1); assay: ITC binding
T9 construct: KDM7B 1-66; made in house
T9 sequence (Q9UPP1 1-66 isoform Q9UPP1-2): T1 sequence (Q9UPP1 1-66 isoform Q9UPP1-2)
Protocol: Figure S8. ITC titration curves for His-Trx-KDM7B PHD.
Top panels are raw heat of injection, bottom panels are normalised data fitted to 1:1 binding model.
His-Trx = His6+thioredoxin. For […]
results of fit and conditions see Figure S10. […]
Figure S10. ITC results: Tabulated values from 1:1 binding model and conditions ITC buffer = 50 mM HEPES, 100 mM NaCl, pH 7.4, 0.2 µm filtered), at 25 °C. Dual = PHD+JmjC. HisTrx = His 6+thioredoxin tag, GST = glutathione S -transferase tag, ZB = Z -basic tag. Syringe contained peptide solution in buffer. Cell contained protein solution in buffer.
as §7

DIDO PHD [6] = biological target: T3, DIDO PHD; assay: AlphaScreen displacement of H3 1-21K4me3-Bt; format: binding; conditions: average of two independent experiments
Source text: (§12) (14 pictures or pasted objects on this page, not shown here)

ING2 PHD [7] = biological target: T4, ING2 PHD; assay: AlphaScreen displacement of H3 1-21K4me3-Bt; format: binding; conditions: once at least in duplicate (Fig. 3c)
Source text: as §12

SPIN1 TTD [8] = biological target: T5, SPIN1 TTD; assay: AlphaScreen displacement of H3 1-21K4me3-Bt; format: binding; conditions: once at least in duplicate (Fig. 3c)
Source text: as §12

KDM7B PHD-finger = biological target: T10, KDM7B PHD-finger (Homo sapiens, UniProt Q9UPP1); assay: HDX-MS; format: binding; conditions: 60 minute time-course, relative to DMSO
T10 construct: KDM7B 1-66; His-tag (C); made in house
T10 sequence (Q9UPP1 1-66 isoform Q9UPP1-2): T1 sequence (Q9UPP1 1-66 isoform Q9UPP1-2)
Source text: (§13) To further evaluate the interactions of OC9 with KDM7B we used hydrogen–deuterium exchange mass spectrometry (HDX-MS), which informs on protein dynamics by following deuterium incorporation into the protein amide backbone (Fig. 2).
(§14) The residue level view was generated by averaging mass changes across overlapping peptide fragments. Supporting data available in ESI. ^† K4me3 binding aromatic cage residues (‘YYMW’ Fig. 1a) are indicated by red asterix.

KDM7B dual domain = biological target: T11, KDM7B dual domain (Homo sapiens, UniProt Q9UPP1); assay: HDX-MS; format: binding; conditions: relative to DMSO
T11 construct: dual domain (PHD-JmjC) of KDM7B; His-tag (C); made in house
T11 sequence (Q9UPP1 37-483 limits assumed): as the sequence (Q9UPP1 37-483 limits assumed) above
Source text: as §13, §14

[9] = qualitative assessment of binding by BLI
[10] = 50 mM HEPES, 100 mM NaCl, pH 7.4, 25 °C, 1:1 binding model

- koff (KDM7B PHD [1]; 1:1 binding model): 0.00143 ± 1e-05 s⁻¹
- kon (KDM7B PHD [1]; 1:1 binding model): 360000 ± 2000 M⁻¹ s⁻¹
- Kd (KDM7B PHD [1]; His-tagged protein on Ni-NTA biosensors, 1:1 binding model, read-out: BLI KD, KDM7B PHD): 3.96 nM
- BLI Screening, KDM7B PHD (KDM7B PHD [1]; [9]): +
- Kd (KDM7B JmjC; 1:1 binding model, read-out: BLI pKD, KDM7B JmjC (converted)): > 1000 nM
- BLI KD, KDM7B JmjC (KDM7B JmjC; His-tagged protein on Ni-NTA biosensors, 1:1 binding model): no affinity
- BLI Screening, KDM7B JmjC (KDM7B JmjC; [9]): -
- BLI KD, DIDO PHD (DIDO PHD [2]): no measurable affinity
- Kd (DIDO PHD [2]): > 1000 nM
- Kd (ING2 PHD [3]): > 1000 nM
- Kd (SPIN1 TTD [4]): > 1000 nM
- Kd (TAF3 PHD): > 1000 nM
- ITC KD, HisTrx-DIDO PHD (HisTrx-DIDO PHD): no measurable affinity
- Kd (KDM7A Dual; [10]): 34.3 nM
- ITC ΔH, KDM7A Dual (KDM7A Dual; 25 °C): -56.9 ± 4.3 kJ mol -1
- ITC N, KDM7A Dual (KDM7A Dual; stoichiometry): 0.92 ± 0.03
- Kd (KDM7B Dual; [10]): 10.5 nM
- ITC ΔH, KDM7B Dual (KDM7B Dual; 25 °C): -46.0 ± 1.5 kJ mol -1
- ITC N, KDM7B Dual (KDM7B Dual; stoichiometry): 0.95 ± 0.02
- Kd (KDM7B PHD [5]; [10]): 11.7 nM
- ITC ΔH, KDM7B PHD (KDM7B PHD [5]; 25 °C): -46.2 ± 1.2 kJ mol -1
- ITC N, KDM7B PHD (KDM7B PHD [5]; stoichiometry): 0.99 ± 0.01
- affinity of OC9 against the KDM7 PHD-fingers greater than the natural histone peptide ligand (KDM7B PHD [5]; vs H3_1–21K4me3): at least 10 fold
- ITC ΔH, KDM7C Dual - ZB (KDM7C Dual - ZB; 25 °C): -65.7 ± 3.1 kJ mol -1
- Kd (KDM7C Dual - ZB; read-out: ITC pKD, KDM7C Dual - ZB (converted)): 10 nM
- ITC N, KDM7C Dual - ZB (KDM7C Dual - ZB; stoichiometry): 1.19 ± 0.01
- Kd (HisTrx-KDM7B PHD; 50 mM HEPES, 100 mM NaCl, pH 7.4, 25 °C, 1:1 binding model, His6+thioredoxin tag, read-out: ITC KD, HisTrx-KDM7B PHD): 8.27 nM
- ITC ΔH, HisTrx-KDM7B PHD (HisTrx-KDM7B PHD; 25 °C): -60.0 ± 1.3 kJ mol -1
- Kd (HisTrx-KDM7B PHD; read-out: ITC pKD, HisTrx-KDM7B PHD (converted)): 7.94 nM
- ITC N, HisTrx-KDM7B PHD (HisTrx-KDM7B PHD; stoichiometry): 0.86 ± 0.01
- AlphaScreen displacement IC50, DIDO PHD (DIDO PHD [6]): no measurable affinity
- IC50 (DIDO PHD [6]): > 10000 nM
- IC50 (ING2 PHD [7]): > 5000 nM
- IC50 (SPIN1 TTD [8]): > 2000 nM
- HDX-MS effect on deuterium uptake, KDM7B PHD-finger (KDM7B PHD-finger): affected an even greater proportion
Compound: CC(C)C[C@@H]1NC(=O)[C@H](Cc2ccc(O)cc2)NC(=O)[C@H](Cc2ccc(O)cc2)NC(=O)CSC[C@@H](C(N)=O)NC(=O)[C@H]([C@@H](C)O)NC(=O)[C@H](CCCNC(=N)N)NC(=O)[C@H](Cc2ccccc2)NC(=O)[C@H](C(C)C)NC(=O)[C@H](CO)NC(=O)[C@@H]2CCCN2C(=O)[C@H](Cc2ccc(O)cc2)NC(=O)[C@@H]2CCCN2C(=O)[C@H](Cc2c[nH]cn2)NC(=O)[C@H]([C@@H](C)O)NC1=O [OC9] (HELM PEPTIDE1{[O=C(C[*:3])[*:2]].Y.Y.L.T.H.P.Y.P.S.V.F.R.T.C.[am]}$PEPTIDE1,PEPTIDE1,1:R3-15:R3$$$V2.0)
- HDX-MS effect on deuterium uptake, KDM7B dual domain (KDM7B dual domain): only reduced deuterium uptake in peptide fragments within the PHD-finger
